Laboratory results: US8975264B2, “Compound acting as a cannabinoid receptor-1 inhibitor” (Amorepacific Corporation, priority 2010, dated 2015)

Molecular target: human CB1 (cannabinoid receptor 1) (Homo sapiens, UniProt P21554)
Experiment: CB1 receptor inhibition effect: calcium ion influx assay (Fluo-4 NW) in Chem-1 cells after 1 μM R-(+)-WIN55212-2
Type: cell-based
Settings: calcium ion influx in Chem-1 cells expressing human CB1, 1 μM R-(+)-WIN55212-2
Method in brief: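 Chem-1 cells stably expressing human CB1 were exposed to compound (0.5% DMSO) for 10 minutes in HBSS/HEPES/probenecid, then stimulated with 1 μM R-(+)-WIN55212-2. Fluo-4 calcium flux was recorded for 80 s. Percent inhibition was calculated from max−min RFU relative to agonist-only and blank wells.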

Chain of human CB1 (cannabinoid receptor 1) (P21554 whole entry): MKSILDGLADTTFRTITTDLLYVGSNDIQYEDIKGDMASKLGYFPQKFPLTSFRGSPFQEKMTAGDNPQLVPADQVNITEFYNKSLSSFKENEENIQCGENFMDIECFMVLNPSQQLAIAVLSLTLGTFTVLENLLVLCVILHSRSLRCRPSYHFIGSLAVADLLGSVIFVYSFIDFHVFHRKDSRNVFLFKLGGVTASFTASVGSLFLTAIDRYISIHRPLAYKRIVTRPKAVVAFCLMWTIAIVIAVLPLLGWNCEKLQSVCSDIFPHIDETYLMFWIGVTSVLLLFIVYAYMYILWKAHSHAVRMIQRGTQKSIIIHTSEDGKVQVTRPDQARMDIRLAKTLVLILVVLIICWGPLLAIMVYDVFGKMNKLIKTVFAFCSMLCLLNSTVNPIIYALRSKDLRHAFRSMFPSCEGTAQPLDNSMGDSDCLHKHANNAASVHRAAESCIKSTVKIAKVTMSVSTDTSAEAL

IC50	Compound
0.34 µM	OC[C@@H]1CCCN1c1cc(-c2cccc(C(F)(F)F)c2)n2ncc(-c3ccc(F)cc3)c2n1 [Example 276]
0.78 µM	Cc1nn2c(-c3ccccc3)cc(N3CCC[C@H]3CO)nc2c1-c1ccccc1 [Example 195]
0.39 µM	CCOc1ccc(-c2c(C)nn3c(-c4ccc(C)cc4)cc(N4CCC[C@H]4CO)nc23)cc1 [Example 53]
0.08 µM	CCOCc1nn2c(-c3cccc(F)c3)cc(N3CCC[C@H]3CO)nc2c1-c1ccc2c(c1)OCO2 [Example 214]
0.09 µM	Cc1nn2c(-c3ccccc3)cc(N3CCC[C@H]3CO)nc2c1-c1ccc2c(c1)OCO2 [Example 56, (S)-(1-(3-(3,4-methylenedioxyphenyl)-7-(phenyl)-2-methylpyrazolo[1,5-a]pyrimidin-5-yl)pyrrolidin-2-yl)methanol]
0.2 µM	COc1cccc(-c2cc(N3CCC[C@H]3CO)nc3c(-c4ccc(Cl)cc4)c(C)nn23)c1 [Example 6]
0.6 µM	CCOCc1nn2c(-c3cccc(Cl)c3)cc(N(C)CCO)nc2c1-c1ccc(OC)cc1 [Example 248]
0.43 µM	Cc1nn2c(-c3ccc(F)cc3)cc(N3CCC[C@H]3CO)nc2c1-c1ccccc1F [Example 87]
0.35 µM	COc1ccc(-c2c(C)nn3c(-c4ccc(C)cc4)cc(N4CCC[C@H]4CO)nc23)cc1 [Example 42]
0.1 µM	CCOCc1nn2c(-c3cccc(OC)c3)cc(N(C)CCO)nc2c1-c1ccc2c(c1)OCO2 [Example 252]
0.13 µM	CCc1cccc(-c2cc(N3CCC[C@H]3CO)nc3c(-c4ccc(C)cc4)c(C)nn23)c1 [Example 31]
0.16 µM	Cc1ccc(-c2c(C)nn3c(-c4cccc(Cl)c4)cc(N4CCC[C@H]4CO)nc23)cc1 [Example 170]
0.11 µM	Cc1nn2c(-c3ccc(F)cc3F)cc(N3CCC[C@H]3CO)nc2c1-c1ccc(Cl)cc1 [Example 22]
0.35 µM	Cc1nn2c(-c3ccc(F)cc3)cc(N3CCC[C@H]3CO)nc2c1-c1ccc(F)cc1F [Example 77]
0.33 µM	C=Cc1ccc(-c2c(C)nn3c(-c4cccc(C)c4)cc(N4CCC[C@H]4CO)nc23)cc1 [Example 165]
0.26 µM	COc1ccc(-c2c(C)nn3c(-c4cccc(OC)c4)cc(N4CCC[C@H]4CO)nc23)cc1 [Example 41]

IC50	Compound
0.22 µM	Cc1nn2c(-c3ccc(F)cc3)cc(N3CCC[C@H]3CO)nc2c1-c1ccc(C(F)(F)F)cc1 [Example 69]
0.005 µM	CCOCc1nn2c(-c3cccc(F)c3)cc(N3CCC[C@H]3CO)nc2c1-c1ccc(C)cc1 [Example 202]
0.022 µM	COCc1nn2c(-c3cccc(C#N)c3)cc(N3CCC[C@H]3CO)nc2c1-c1ccc(OC)cc1 [Example 228]
0.13 µM	CCOCc1nn2c(-c3cccc(Cl)c3)cc(N(C)CCO)nc2c1-c1ccc2c(c1)OCO2 [Example 254]
0.15 µM	CCOCc1nn2c(-c3cccc(Cl)c3)cc(N3CCC[C@H]3CO)nc2c1-c1ccc2c(c1)OCO2 [Example 217]
0.22 µM	COc1cccc(-c2cc(N3CCC[C@H]3CO)nc3c(-c4ccc(OC)c(F)c4)c(C)nn23)c1 [Example 186]
0.45 µM	Cc1ccc(-c2cnn3c(-c4ccc(F)cc4)cc(N4CCC[C@H]4CO)nc23)cc1 [Example 269, (S)-(1-(3-(4-methylphenyl)-7-(4-fluorophenyl)-pyrazolo[1,5-a]pyrimidin-5-yl)pyrrolidin-2-yl)methanol]
0.25 µM	Cc1nn2c(-c3cccc(Cl)c3)cc(N3CCC[C@H]3CO)nc2c1-c1ccc(C(F)(F)F)cc1 [Example 173]
0.028 µM	CCOCc1nn2c(-c3ccc(F)cc3)cc(N(C)CCO)nc2c1-c1ccc(C)cc1 [Example 239, 2-{[2-ethoxymethyl-7-(4-fluorophenyl)-3-(4-methylphenyl)-pyrazolo[1,5-a]pyrimidin-5-yl]methylamino}ethanol]
0.3 µM	CCOc1ccc(-c2c(C)nn3c(-c4ccc(F)cc4)cc(N4CCC[C@H]4CO)nc23)cc1F [Example 81]
0.014 µM	COCc1nn2c(-c3cccc(C(F)(F)F)c3)cc(N(C)CCO)nc2c1-c1ccc(OC)cc1 [Example 257]
0.11 µM	CSc1ccc(-c2c(C)nn3c(-c4cccc(C)c4)cc(N4CCC[C@H]4CO)nc23)cc1 [Example 162]
0.21 µM	COc1ccc(-c2c(C)nn3c(-c4cccc(C)c4)cc(N4CCC[C@H]4CO)nc23)cc1 [Example 157, (S)-(1-(3-(4-methoxyphenyl)-7-(3-methylphenyl)-2-methylpyrazolo[1,5-a]pyrimidin-5-yl)pyrrolidin-2-yl)methanol]
0.45 µM	CCCOc1ccc(-c2c(C)nn3c(-c4cccc(F)c4)cc(N4CCC[C@H]4CO)nc23)cc1 [Example 119]
0.47 µM	Cc1nn2c(-c3ccc(F)cc3)cc(N3CCC[C@H]3CO)nc2c1-c1ccc(OC(C)C)cc1 [Example 85]
0.11 µM	Cc1cccc(-c2cc(N3CCC[C@H]3CO)nc3c(-c4ccc(C(F)F)cc4)c(C)nn23)c1 [Example 160]
